This series is described as follows: thermodynamic stability of the polymorphic crystalline forms of Fasidotril. The format is physicochemical. An excerpt:
It has been discovered that Fasidotril can exist in various polymorphic crystalline forms which differ from each other in their physical and spectroscopic properties, their zones of thermodynamic stability and their methods of preparation. Four of these novel forms are described below and will be designated as form I, form II, form III and form IV, respectively.
It is shown that among these four forms, forms I and II are stable at low and high temperature, respectively, while forms III and IV are unstable and can be easily converted to the stable form I or II depending on the operating conditions chosen.
It is also shown that it is possible to convert form I to form II and to convert form II to form I depending on the operating conditions chosen.

The structures appear in SMILES notation.

Turning to `CC(=O)SC[C@@H](Cc1ccc2c(c1)OCO2)C(=O)N[C@@H](C)C(=O)OCc1ccccc1` [form I, benzyl (S,S)-2-(2-acetylsulphanylmethyl-3-benzo[1,3]dioxol-5-ylpropionylamino)propionate], for the setting “at low temperature”, the “stability of the polymorphic form” value was “stable”.
For `CC(=O)SC[C@@H](Cc1ccc2c(c1)OCO2)C(=O)N[C@@H](C)C(=O)OCc1ccccc1` [form II, benzyl (S,S)-2-(2-acetylsulphanylmethyl-3-benzo[1,3]dioxol-5-ylpropionylamino)propionate], the “stability of the polymorphic form” value (at high temperature) was “stable”.
Take `CC(=O)SC[C@@H](Cc1ccc2c(c1)OCO2)C(=O)N[C@@H](C)C(=O)OCc1ccccc1` [form III, benzyl (S,S)-2-(2-acetylsulphanylmethyl-3-benzo[1,3]dioxol-5-ylpropionylamino)propionate]: the “stability of the polymorphic form” value (can be easily converted to the stable form I or II depending on the operating conditions) is listed as “unstable”.

The values above are taken from US6767921B2, “Polymorphic forms of fasidotril, their methods of preparation and pharmaceutical compositions comprising them” (Bioproject, priority 2002, dated 2004).
